In test [1] the target is T1, Snake venom metalloproteinase BaP1 (Bothrops asper, UniProt P83512).
T1 sequence (P83512 whole entry): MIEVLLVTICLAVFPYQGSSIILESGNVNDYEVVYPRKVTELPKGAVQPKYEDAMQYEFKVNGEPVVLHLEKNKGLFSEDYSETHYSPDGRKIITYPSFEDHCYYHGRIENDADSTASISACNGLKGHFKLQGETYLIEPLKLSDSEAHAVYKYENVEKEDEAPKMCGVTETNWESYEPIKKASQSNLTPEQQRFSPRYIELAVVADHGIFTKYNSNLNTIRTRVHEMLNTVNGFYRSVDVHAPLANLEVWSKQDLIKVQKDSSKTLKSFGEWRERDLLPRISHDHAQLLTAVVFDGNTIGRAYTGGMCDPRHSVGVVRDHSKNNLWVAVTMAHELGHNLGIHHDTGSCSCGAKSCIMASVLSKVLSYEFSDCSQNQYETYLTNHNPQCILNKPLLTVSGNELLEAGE
As to the kind of experiment: Inhibition of Bothrops asper venom metalloprotease BaP1 assessed as reduction in proteolytic activity using azocasein as substrate measured after 90 mins by colorimetric method.

For test [2], the target named is T2, Snake venom metalloproteinase BaP1 (Bothrops asper) (UniProt P83512).
T2 sequence (whole entry): T1 sequence (P83512 whole entry)
As to the kind of experiment: Inhibition of Bothrops asper venom metalloprotease BaP1 assessed as reduction in proteolytic activity at 100 umol/dm3 using azocasein as substrate measured after 90 mins by colorimetric method relative to control.

Test [3] addresses T1, Snake venom metalloproteinase BaP1. As to the kind of experiment: Binding affinity to Bothrops asper venom metalloprotease BaP1 assessed as Stern-Volmer quenching constant by fluorescence spectroscopic method.
The target in test [4] is T2, Snake venom metalloproteinase BaP1 (Bothrops asper). Nature of the test: Binding affinity to Bothrops asper venom metalloprotease BaP1 by fluorescence spectroscopic method.
Test [5] has the same target. As to the kind of experiment: Binding affinity to Bothrops asper venom metalloprotease BaP1 assessed as red shift by fluorescence spectroscopic method.

The IC50 is the concentration that inhibits the measured activity by half. As a reminder, the inhibition is how much of the control response was suppressed. As a reminder, the Kd is the equilibrium constant for the complex coming apart.

Active and inactive are the calls of the source. No cut-off for these calls is given here.

For the compound `CC(C)c1ccc(OCC(=O)N/N=C2\C(=O)NC(=O)N=C2O)cc1`, the half-maximal inhibitory concentration (IC50) in test [1] amounted to 17 µM. In addition, the inhibition in test [2] amounted to 95%. Besides, the equilibrium dissociation constant (Kd) in test [3] stood at 33.6 µM. Further, in test [4], the result was Active. In addition, the Activity in test [5] came to 7 nm.
With `Cc1ccc(OCC(=O)N/N=C2\C(=O)NC(=O)N=C2O)cc1`, the IC50 in test [1] was 20 µM. Further, the inhibition in test [2] is 98%. Further, the Kd in test [3] came out at 37.1 µM. Besides, the outcome in test [4] was Active. For the same compound, in test [5], the Activity was 11 nm.

These data come from ChEMBL document CHEMBL4014297, “Discovery of small molecule inhibitors for the snake venom metalloprotease BaP1 using in silico and in vitro tests” (Bioorg Med Chem Lett, 2017).
